Measurements taken from US20100099561A1, “HETEROBICYCLIC ALKYLTHIO-BRIDGED ISOXAZOLINES” (E.I. DU PONT DE NEMOURS AND COMPANY, priority 2008, published 2010).

What was measured:
Type in all cases: in vivo
[1] = tested on: barnyardgrass (Echinochloa crus-galli); experiment: Test A preemergence, barnyardgrass; conditions: 0 to 100 scale (0 no effect, 100 complete control)
How it was run: (§1)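 Scores reflect visual plant injury on a 0 (no effect) to 100 (complete control) scale, assessed about ten days after application in the greenhouse. Compounds were delivered in a non-phytotoxic solvent blend with surfactant, either preemergence to soil or postemergence at one- to two-leaf stage.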

[2] = tested on: large crabgrass (Digitaria sanguinalis); experiment: Test A preemergence, large crabgrass; conditions: 0 to 100 scale (0 no effect, 100 complete control)
How it was run: as §1

[3] = tested on: giant foxtail (Setaria faberi); experiment: Test A preemergence, giant foxtail; conditions: 0 to 100 scale (0 no effect, 100 complete control)
How it was run: as §1

[4] = tested on: morningglory (Ipomoea spp.); experiment: Test A preemergence, morningglory; conditions: 0 to 100 scale (0 no effect, 100 complete control)
How it was run: as §1

[5] = tested on: pigweed (Amaranthus retroflexus); experiment: Test A preemergence, pigweed; conditions: 0 to 100 scale (0 no effect, 100 complete control)
How it was run: as §1

[6] = tested on: velvetleaf (Abutilon theophrasti); experiment: Test A preemergence, velvetleaf; conditions: 0 to 100 scale (0 no effect, 100 complete control)
How it was run: as §1

[7] = tested on: wheat (Triticum aestivum); experiment: Test A preemergence, wheat; conditions: 0 to 100 scale (0 no effect, 100 complete control)
How it was run: as §1

[8] = tested on: corn (Zea mays); experiment: Test A preemergence, corn; conditions: 0 to 100 scale (0 no effect, 100 complete control)
How it was run: as §1

[9] = tested on: barnyardgrass (Echinochloa crus-galli); experiment: Test A postemergence, barnyardgrass; conditions: 0 to 100 scale (0 no effect, 100 complete control)
How it was run: as §1

[10] = tested on: large crabgrass (Digitaria sanguinalis); experiment: Test A postemergence, large crabgrass; conditions: 0 to 100 scale (0 no effect, 100 complete control)
How it was run: as §1

[11] = tested on: giant foxtail (Setaria faberi); experiment: Test A postemergence, giant foxtail; conditions: 0 to 100 scale (0 no effect, 100 complete control)
How it was run: as §1

[12] = tested on: morningglory (Ipomoea spp.); experiment: Test A postemergence, morningglory; conditions: 0 to 100 scale (0 no effect, 100 complete control)
How it was run: as §1

[13] = tested on: pigweed (Amaranthus retroflexus); experiment: Test A postemergence, pigweed; conditions: 0 to 100 scale (0 no effect, 100 complete control)
How it was run: as §1

[14] = tested on: velvetleaf (Abutilon theophrasti); experiment: Test A postemergence, velvetleaf; conditions: 0 to 100 scale (0 no effect, 100 complete control)
How it was run: as §1

[15] = tested on: wheat (Triticum aestivum); experiment: Test A postemergence, wheat; conditions: 0 to 100 scale (0 no effect, 100 complete control)
How it was run: as §1

[16] = tested on: corn (Zea mays); experiment: Test A postemergence, corn; conditions: 0 to 100 scale (0 no effect, 100 complete control)
How it was run: as §1

[17] = tested on: rice (Oryza sativa); experiment: Test B flooded paddy test, rice; conditions: Flood, scale 0 to 100
How it was run: (§2)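 Compounds were added directly to paddy water over 2-leaf-stage plants in pots flooded 3 cm above soil, water depth maintained. Visual injury scored against controls after 13 to 15 days in greenhouse, 0 (none) to 100 (complete control); dash indicates no result.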

[18] = tested on: umbrella sedge (Cyperus difformis); experiment: Test B flooded paddy test, umbrella sedge; conditions: Flood, scale 0 to 100
How it was run: as §2

[19] = tested on: ducksalad (Heteranthera limosa); experiment: Test B flooded paddy test, ducksalad; conditions: Flood, scale 0 to 100
How it was run: as §2

[20] = tested on: barnyardgrass (Echinochloa crus-galli); experiment: Test B flooded paddy test, barnyardgrass; conditions: Flood
How it was run: as §2

[21] = 250 g ai/ha, scale 0 to 100 (0 no effect, 100 complete control)

CC1(C)CC([S+]([O-])Cc2c(C(F)(F)F)nc3cnccn3c2=O)=NO1 (stereo not shown) [Compound 54]
Plant response rating, Barnyardgrass ([1]; 125 g ai/ha): 0 | Plant response rating, Barnyardgrass ([1]; 500 g ai/ha): 0 | Plant response rating, Crabgrass, Large ([2]; 125 g ai/ha): 0 | Plant response rating, Crabgrass, Large ([2]; 500 g ai/ha): 0 | Plant response rating, Foxtail, Giant ([3]; 125 g ai/ha): 0 | Plant response rating, Foxtail, Giant ([3]; 500 g ai/ha): 0 | Plant response rating, Morningglory ([4]; 125 g ai/ha): 0 | Plant response rating, Morningglory ([4]; 500 g ai/ha): 0 | Plant response rating, Pigweed ([5]; 125 g ai/ha): 0 | Plant response rating, Pigweed ([5]; 500 g ai/ha): 0 | Plant response rating, Velvetleaf ([6]; 125 g ai/ha): 0 | Plant response rating, Velvetleaf ([6]; 500 g ai/ha): 0 | Plant response rating, Wheat ([7]; 125 g ai/ha): 0 | Plant response rating, Wheat ([7]; 500 g ai/ha): 0 | Plant response rating, Corn ([8]; 125 g ai/ha): 0 | Plant response rating, Corn ([8]; 500 g ai/ha): 0 | Plant response rating, Barnyardgrass ([9]; 125 g ai/ha): 0 | Plant response rating, Barnyardgrass ([9]; 500 g ai/ha): 0 | Plant response rating, Crabgrass, Large ([10]; 125 g ai/ha): 0 | Plant response rating, Crabgrass, Large ([10]; 500 g ai/ha): 20 | Plant response rating, Foxtail, Giant ([11]; 125 g ai/ha): 0 | Plant response rating, Foxtail, Giant ([11]; 500 g ai/ha): 50 | Plant response rating, Morningglory ([12]; 125 g ai/ha): 0 | Plant response rating, Morningglory ([12]; 500 g ai/ha): 10 | Plant response rating, Pigweed ([13]; 125 g ai/ha): 0 | Plant response rating, Pigweed ([13]; 500 g ai/ha): 0 | Plant response rating, Velvetleaf ([14]; 125 g ai/ha): 0 | Plant response rating, Velvetleaf ([14]; 500 g ai/ha): 0 | Plant response rating, Wheat ([15]; 125 g ai/ha): 0 | Plant response rating, Wheat ([15]; 500 g ai/ha): 0 | Plant response rating, Corn ([16]; 125 g ai/ha): 0 | Plant response rating, Corn ([16]; 500 g ai/ha): 0 | Plant response rating, Rice ([17]; 62 g ai/ha): 0 | Plant response rating, Rice ([17]; 250 g ai/ha): 0 | Plant response rating, Sedge, Umbrella ([18]; 62 g ai/ha): 0 | Plant response rating, Sedge, Umbrella ([18]; 250 g ai/ha): 0 | Plant response rating, Ducksalad ([19]; 62 g ai/ha): 0 | Plant response rating, Ducksalad ([19]; 250 g ai/ha): 0 | Plant response rating, Barnyardgrass ([20]; 62 g ai/ha, scale 0 to 100): 0 | Plant response rating, Barnyardgrass [20, 21]: 0

CC1(C)CC(S(=O)(=O)Cc2c(C(F)(F)C(F)(F)F)nc3n(c2=O)CCCO3)=NO1 [Compound 55]
Plant response rating, Barnyardgrass ([1]; 125 g ai/ha): 50 | Plant response rating, Barnyardgrass ([1]; 500 g ai/ha): 80 | Plant response rating, Crabgrass, Large ([2]; 125 g ai/ha): 0 | Plant response rating, Crabgrass, Large ([2]; 500 g ai/ha): 90 | Plant response rating, Foxtail, Giant ([3]; 125 g ai/ha): 80 | Plant response rating, Foxtail, Giant ([3]; 500 g ai/ha): 90 | Plant response rating, Morningglory ([4]; 125 g ai/ha): 0 | Plant response rating, Morningglory ([4]; 500 g ai/ha): 50 | Plant response rating, Pigweed ([5]; 125 g ai/ha): 0 | Plant response rating, Pigweed ([5]; 500 g ai/ha): 40 | Plant response rating, Velvetleaf ([6]; 125 g ai/ha): 0 | Plant response rating, Velvetleaf ([6]; 500 g ai/ha): 30 | Plant response rating, Wheat ([7]; 125 g ai/ha): 0 | Plant response rating, Wheat ([7]; 500 g ai/ha): 20 | Plant response rating, Corn ([8]; 125 g ai/ha): 0 | Plant response rating, Corn ([8]; 500 g ai/ha): 0 | Plant response rating, Barnyardgrass ([9]; 125 g ai/ha): 70 | Plant response rating, Barnyardgrass ([9]; 500 g ai/ha): 90 | Plant response rating, Crabgrass, Large ([10]; 125 g ai/ha): 30 | Plant response rating, Crabgrass, Large ([10]; 500 g ai/ha): 70 | Plant response rating, Foxtail, Giant ([11]; 125 g ai/ha): 70 | Plant response rating, Foxtail, Giant ([11]; 500 g ai/ha): 80 | Plant response rating, Morningglory ([12]; 125 g ai/ha): 10 | Plant response rating, Morningglory ([12]; 500 g ai/ha): 20 | Plant response rating, Pigweed ([13]; 125 g ai/ha): 0 | Plant response rating, Pigweed ([13]; 500 g ai/ha): 10 | Plant response rating, Velvetleaf ([14]; 125 g ai/ha): 0 | Plant response rating, Velvetleaf ([14]; 500 g ai/ha): 30 | Plant response rating, Wheat ([15]; 125 g ai/ha): 0 | Plant response rating, Wheat ([15]; 500 g ai/ha): 30 | Plant response rating, Corn ([16]; 125 g ai/ha): 0 | Plant response rating, Corn ([16]; 500 g ai/ha): 0 | Plant response rating, Rice ([17]; 31 g ai/ha): 0 | Plant response rating, Rice ([17]; 62 g ai/ha): 0 | Plant response rating, Rice ([17]; 125 g ai/ha): 0 | Plant response rating, Rice ([17]; 250 g ai/ha): 0 | Plant response rating, Sedge, Umbrella ([18]; 31 g ai/ha): 0 | Plant response rating, Sedge, Umbrella ([18]; 62 g ai/ha): 0 | Plant response rating, Sedge, Umbrella ([18]; 125 g ai/ha): 0 | Plant response rating, Sedge, Umbrella ([18]; 250 g ai/ha): 0 | Plant response rating, Ducksalad ([19]; 31 g ai/ha): 0 | Plant response rating, Ducksalad ([19]; 62 g ai/ha): 0 | Plant response rating, Ducksalad ([19]; 125 g ai/ha): 0 | Plant response rating, Ducksalad ([19]; 250 g ai/ha): 0 | Plant response rating, Barnyardgrass ([20]; 31 g ai/ha, scale 0 to 100): 0 | Plant response rating, Barnyardgrass ([20]; 62 g ai/ha, scale 0 to 100): 0 | Plant response rating, Barnyardgrass ([20]; 125 g ai/ha, scale 0 to 100): 0 | Plant response rating, Barnyardgrass [20, 21]: 0
